The record followed here is paper PMC12356528, “Modular Synthetic Platform for the Elaboration of Fragments in Three Dimensions for Fragment-Based Drug Discovery” (Journal of the American Chemical Society, 2025).

A short description of data set [1]: DMPK Wave1: metabolic stability in human liver microsomes. The following applies: human liver microsomes (HLM). It is filed as in vitro ADME.
Data set [2] in a line: DMPK Wave1: lipophilicity (measured logD). Type of data set: physicochemical.
A short description of data set [3]: DMPK Wave1: aqueous solubility. Type of data set: physicochemical.
The nature of data set [4]: DMPK Wave1: metabolic stability in rat hepatocytes. Type of data set: in vitro ADME. To be noted: rat hepatocytes (RH).

Converted amounts (≈) assume the structure as drawn. Like-named read-outs stand apart in the source and are kept apart here.

For `Cc1noc(C)c1S(=O)(=O)N1CCC2(CC1)CC2c1cnc2[nH]ccc2c1` (stereo not drawn) [Compound 78], the “metabolic stability (in words)” value in data set [1] and in data set [4] was “lower metabolic stability” throughout. Also, the logD in data set [2] stood at 3.6. The molecule further returned a solubility in data set [3] of 49 µM (≈ 18.9 µg/mL).

With `COc1cc([C@H]2[C@@H]3CN(C(=O)Cc4c[nH]c5ccccc45)CC[C@@H]32)ccn1` [Compound 81], the “metabolic stability (in words)” value in data set [1] and in data set [4] was “lower metabolic stability” throughout. This molecule showed a logD in data set [2] of 3.1. Further, in data set [3], the concentration in solution (solubility) came to 100 µM (≈ 36.1 µg/mL).

On to `c1ncc(C2CC23CCN(c2ccc4c(c2)OCO4)CC3)cn1` (stereo not drawn) [Compound 82], for which the “metabolic stability (in words)” value in data set [1] and in data set [4] was “good metabolic stability” throughout. Also, the logD in data set [2] is 0.1. This molecule showed a solubility in data set [3] of 887 µM (≈ 274 µg/mL).

Molecule `CS(=O)(=O)N1CCC2CC21c1cncnc1` (stereo not drawn) [Compound 86] showed a logD in data set [2] of -0.4. The solubility in data set [3] was 881 µM (≈ 211 µg/mL).

In data set [2], `CS(=O)(=O)N1CCC2(CC1)CC2c1cncnc1` (stereo not drawn) [Compound 87] yielded a logD of 0.2. The solubility in data set [3] amounted to 931 µM (≈ 249 µg/mL).

`CS(=O)(=O)N1CC2(CC2c2cncnc2)C1` (stereo not drawn) [Compound 88] registered a logD in data set [2] of -0.6. Further, in data set [3], the concentration in solution (solubility) came to 913 µM (≈ 218 µg/mL).

Consider `CS(=O)(=O)N1C2CCC1CC1(C2)CC1c1cncnc1` (stereo not drawn) [Compound 91], for which the logD in data set [2] stood at 0.5. The molecule further showed a solubility in data set [3] greater than 981 µM.

In data set [2], `CS(=O)(=O)N1CCC[C@@H]2[C@@H](c3cncnc3)[C@@H]21` [Compound 94] gave a logD of 0.1. In addition, the concentration in solution in data set [3] (aqueous) (solubility) came to 823 µM (≈ 208 µg/mL).

In data set [2], `C=CC(=O)N1C[C@H](Nc2ncnc3[nH]ccc23)CC[C@@H]1C` [Ritlecitinib, 1-((2S,5R)-5-((7H-Pyrrolo[2,3-d]pyrimidin-4-yl)amino)-2-methylpiperidin-1-yl)prop-2-en-1-one, reference compound] yielded a logD of 1.6. In addition, in data set [3] (aqueous), the concentration in solution (solubility) was 996 µM (≈ 284 µg/mL).
